Source: patent US20240247074A1, “THERAPEUTIC STRATEGY FOR NON-SMALL CELL LUNG CANCER AND OTHER CANCERS” (New York University, priority 2023, published 2024)

How the values were obtained:
CD38 expression [1] = experiment: FACS analysis of CD38 expression in LKB1 mutant tumors after EP300 inhibitor treatment; format: cell-based; conditions: LKB1 mutant lung cancer tumors, FIG. 6A, 6B
From the text: (§1) FIG. 6. EP300 inhibition suppresses LKB1 mutant tumor progression. (A), EP300 inhibitors CCS1477 and A485 suppresses CD38 expression in LKB1 mutant tumors. (B), Representative FACS analysis of CD38 expression after drug treatment. (C), Tumor volume changes of KL tumors after indicated EP300 inhibitors treatment. (D). Tumor growth curve of KL tumors treated with CCS1477 or A485.
(§2) Since LKB1/SIK suppresses CD38 expression through CTRC/EP300/CREB complex, we further tested inhibition of CD38 via EP300 inhibitors, including CCS1477 and A485, in LKB1 mutant lung cancer tumors.

[2] = system: KL tumors (LKB1 mutant lung cancer tumors); experiment: KL tumor growth after EP300 inhibitor treatment; format: in vivo; conditions: FIG. 6C, 6D
From the text: as §1, §2

CD38 expression [3] = experiment: Flow cytometric analysis of CD38 expression after SIK inhibitor treatment in LKB1 WT mouse cancer cell lines; format: cell-based; conditions: LKB1 WT mouse lung cancer (KPC), colon cancer (CT26, MC38) and pancreatic cancer (KP1) lines; flow cytometry; FIG. 3
From the text: FIG. 3. SIK inhibitor increases upregulation of CD38 in LKB1 wildtype tumors. Flow cytometric analysis of CD38 expression changes after SIK inhibitor YKL-05-099 treatment in lung cancer (KPC) (A), and colon cancer (CT26, MC38) or pancreatic cancer (KP1) lines (B) at the indicated time points and concentration.
In line with the results of the LKB1 rescue studies, CRISPR-mediated knockout of Lkb1 in murine KP NSCLC cells led to increased cell surface expression of CD38 (FIG. 2A, 2B). We subsequently tested the impact of knockout of Sik1, Sik2 and Sik3, alone or in combination. We observed prominent increases in CD38 expression at the cell surface in KP cells upon inactivation of Sik1 or of all three SIK family members, but not to the level of CD38 in KP sgLkb1 cells (FIG. 2A, 2B). Without intending to be constrained by any particular theory, it is considered this indicates other factors other than SIK1/2/3 downstream of LKB1, might also contribute to the suppression of CD38 expression.

HCC44 xenograft tumor = HCC44 xenograft tumor growth in nu/nu mice; format: in vivo, mouse; conditions: LKB1 mutant HCC44 xenograft, 12.5 mg/kg once per week from about 100 mm^3, vs hIgG1, FIG. 5
Experimental: (§3) FIG. 5. Daratumumab induces killing of CD38 positive lung cancer. […] A549 (A-C) or HCC44 (D-F) xenograft tumor growth in response to daratumumab treatment. For each mouse, 3×10^6 A549 cells (A) or 5×10^5 HCC44 (D) were implanted into nu/nu mice subcutaneously. Daratumumab or hIgG1 (12.5 mg/kg, once per week) was dosed when tumor size reached 100 mm^3. Growth curve of A549 cells (A) or HCC44 (D) after daratumumab treatment. B-C, Individual mouse tumor growth curve for A549 xenografts treated with either hIgG1 (B) or Daratumumab (C) shown in panel A. (E-F), Individual mouse tumor growth curve for HCC44 xenograft treated with either hIgG1 (E) or Daratumumab (F) shown in panel D.
(§4) To study the effects of daratumumab in vivo, we implanted the LKB1 mutant A549 and HCC44 cell lines into athymic nude (nu/nu) mice to generate tumor xenografts. Daratumumab is a human IgG1, which can be recognized by mouse FcγRs on effector cells, resulting in ADCC induced between daratumumab with mouse NK cells through crosstalk, enabling evaluation of NK cell-mediated tumor cell killing in vivo. When tumors reached approximately 100 mm^3 in volume, mice were treated with daratumumab once weekly.

A549 xenograft tumor = A549 xenograft tumor growth in nu/nu mice; format: in vivo, mouse; conditions: LKB1 mutant A549 xenograft, 12.5 mg/kg once per week from about 100 mm^3, vs hIgG1, FIG. 5
Experimental: as §3, §4

## CNC(=O)Nc1ccc2c(c1)CC[C@@]21OC(=O)N(CC(=O)N(Cc2ccc(F)cc2)[C@@H](C)C(F)(F)F)C1=O [A485]
CD38 expression [1]
  CD38 expression on the tumor cells: decrease of CD38 expression
[2]
  tumor growth in vivo: reduced tumor growth

## CO[C@H]1CC[C@H](n2c([C@@H]3CCCC(=O)N3c3ccc(F)c(F)c3)nc3cc(-c4c(C)noc4C)ccc32)CC1 [CCS1477]
CD38 expression [1]
  CD38 expression on the tumor cells: decrease of CD38 expression
[2]
  tumor growth in vivo: reduced tumor growth

## COc1ccc(N2C(=O)N(c3c(C)cccc3Cl)Cc3cnc(Nc4ccc(C5CCN(C)CC5)cc4OC)nc32)nc1 [YKL-05-099]
CD38 expression [3]
  CD38 expression change: upregulated CD38

## daratumumab: first approved antibody against CD38, a fully human IgG1-κ monoclonal antibody
HCC44 xenograft tumor
  tumor growth: significant reduction in tumor growth
A549 xenograft tumor
  tumor growth: significant reduction in tumor growth
